# Key:
# [1] = test system: D54 cells; test: Cell viability, Alamar Blue, 7-day incubation, D54; type: cell-based; details: Homo sapiens, D54, 168 h, Table 1a, MGMT −, 7 days, error SEM, read-out: IC50 D54
# Procedure: (§1) Anticancer activity of C8 substituted imidazotetrazines. With a suite of imidazotetrazines in hand, each compound was evaluated against a panel of human GBM cell lines (Table 1a, Table 1b).
# [2] = test system: T98G cells; test: Cell viability, Alamar Blue, 7-day incubation, T98G; type: cell-based; details: Homo sapiens, 168 h, Table 1a, MGMT +, 7 days, error SEM, read-out: IC50 T98G
# Procedure: as §1
# [3] = test system: U87 cells; test: Cell viability, Alamar Blue, 7-day incubation, U87; type: cell-based; details: Homo sapiens, U-87 MG, 168 h, Table 1a, MGMT −, 7 days, error SEM, n ≥ 3, read-out: IC50 U87
# Procedure: as §1
# [4] = Mouse liver microsome stability assay; type: in vitro ADME; details: for metabolic stability in words: mouse liver microsomes, 2 hours; for Stability (2 h, Microsomes): percentage remaining relative to t0, error SEM, n ≥ 2
# Procedure: (§2) Liver microsome stability.
# (§3) Mouse Liver Microsome Stability Assay. A mixture of PBS (pH 7.4), NADPH regenerating system solution A (Corning Life Sciences), and NADPH regenerating system solution B (Corning Life Sciences) was incubated at 37° C. in a shaking incubator for 5 min. Next, compound was added in DMSO (final concentration 50 μM, 0.5% DMSO) before ice-cold mouse liver microsomes (Thermo Fisher, male CD-1 mice, pooled) were added (final protein concentration of 1 mg/mL). An aliquot was immediately removed, quenched with an equal volume of 100 μM internal standard and 0.5% hydrochloric acid in ice-cold acetonitrile, and centrifuged at 13,000 rcf for 3 min. The supernatant was diluted 1:5 in ddH2O and analyzed by LC-MS. The reactions were incubated at 37° C. in a shaking incubator for 2 h. A second aliquot was removed, quenched and diluted as before and analyzed by LC-MS. The ratio of the areas of analyte:internal standard at 2 hours was compared to the ratio at t0 to determine the percentage of compound remaining. Analysis was performed on an Agilent 6230 LC/MS TOF system with a 1.8 μm, 2.1×50 mm Agilent ZORBAX Eclipse Plus C18 column.
# [5] = test system: Br23c GBM oncosphere cell line; test: Cell viability, Alamar Blue, 7-day, Br23c GBM oncosphere line; type: cell-based; details: Homo sapiens, 168 h, error SEM, read-out: 7-day IC50 MGMT − Br23C
# [6] = test system: GBM Br23c oncospheres intracranially implanted; test: Intracranial mouse model of GBM (Br23c oncospheres); type: in vivo; details: for increase in median survival over TMZ: equimolar to 15 mg/kg TMZ, oral gavage once-per-day, 5×/week, 7 weeks
# Excerpt: FIG. 5. Evaluation of imidazotetrazines in intracranial mouse models of GBM. GBM Br23c oncospheres were intracranially implanted into female athymic nude mice. Treatment was started 5 days post implantation. […] Compounds were formulated in 10% PEG in PBS immediately prior to each treatment. Number of mice per treatment cohort≥5. Survival curves were compared using log-rank test.
# in vivo Efficacy Models. Human GBM Br23c stem-like neurosphere cells were intracranially implanted in female athymic nude mice (150,000 cells/mouse). […] Mice were observed daily for any signs of deterioration, neurotoxicity, or movement disorders. They were inspected for signs of pain and distress, as in accordance with the Johns Hopkins Animal Care and Use Guidelines.
# [7] = test system: T98G cells; test: cells; type: cell-based; details: for IC50: Homo sapiens, 7-day incubation; for Fold Change: between IC50 (+/−) O6BG
# Procedure: FIG. 4. Imidazotetrazines were added to T98G cells with or without 3 h pre-treatment of O6BG (100 μM). IC50 values after 7-day incubation and fold changes between (+/−) O6BG treatments are reported. […] Error is SEM, n≥3. Statistical significance was determined by using a two-sample Student's t-test (two-tailed test, assuming equal variance).
# [8] = Stability in the absence of microsomes (microsomes replaced with PBS); type: physicochemical; details: liver microsomes replaced with PBS, percentage remaining relative to t0
# Procedure: as §2, §3
# [9] = Hydrolytic stability in buffered saline (HPLC assay); details: saline at pH 7.0, 7.4, and 8.0, 2 h at 37° C.
# Procedure: Hydrolytic stability of C8 substituted imidazotetrazines. […] A HPLC assay was developed to quantify the fraction of intact prodrug remaining in solution after 2 hours at pH 7.4, 37° C.
# [10] = Assessment of hematological toxicity in vivo; details: mice
# Procedure: Assessment of hematological toxicity. […] Both lymphocyte (FIG. 3b) and neutrophil (FIG. 8a) concentrations were decreased in TMZ-treated mice. […] Total WBC, lymphocyte, and neutrophil counts for mice treated with these compounds were equivalent to those of control mice.
# Assessment of Hematological Toxicity. Male CD-1 IGS mice (n=4 mice/group) were administered a single dose of 125 mg/kg compound intravenously. Imidazotetrazines were formulated with SBEβCD in sterile water immediately prior to injection. Seven days post-treatment, mice were humanely sacrificed and whole blood was collected for assessment of total white blood cells, lymphocytes, neutrophils, platelets, and red blood cells.
# [11] = 3 h pre-treatment with O6BG (100 μM)
smiles,measurement,setting,value
Cn1nnc2c(C(=O)O)ncn2c1=O [Compound 3],IC50,[1],130 ± 8 µM
same,IC50,[2],321 ± 8 µM
same,IC50,[3],320 ± 7 µM
"CNC(=O)c1ncn2c(=O)n(C)nnc12 [Compound 4, N,3-dimethyl-4-oxo-3,4-dihydroimidazo[5,1-d][1,2,3,5]tetrazine-8-carboxamide]",IC50,[1],11 ± 1 µM
same,metabolic stability in words,[4],some susceptibility to the effects of the microsomes
same,IC50,[2],580 ± 20 µM
same,IC50,[5],6 ± 1 µM
same,IC50,[3],49 ± 7 µM
same,increase in median survival over TMZ,[6],24%
"CN(C)C(=O)c1ncn2c(=O)n(C)nnc12 [Compound 5, N,N,3-trimethyl-4-oxo-3,4-dihydroimidazo[5,1-d][1,2,3,5]tetrazine-8-carboxamide]",IC50,[1],12 ± 5 µM
same,metabolic stability in words,[4],some susceptibility to the effects of the microsomes
same,IC50,[2],250 ± 60 µM
same,IC50,[5],6 ± 1 µM
same,IC50,[3],40 ± 20 µM
same,IC50,[7]; [11],25 ± 9 µM
same,IC50,"[7]; 168 h, without O6BG",250 ± 60 µM
same,Fold Change,[7],10
same,increase in median survival over TMZ,[6],46%
"CCN(CC)C(=O)c1ncn2c(=O)n(C)nnc12 [Compound 6, N,N-diethyl-3-methyl-4-oxo-3,4-dihydroimidazo[5,1-d][1,2,3,5]tetrazine-8-carboxamide]",IC50,[1],13 ± 2 µM
same,"Stability (2 h, Microsomes)",[4],81 ± 1%
same,IC50,[2],160 ± 40 µM
same,"Stability (2 h, No Microsomes)",[8],95 ± 2%
same,IC50,[3],80 ± 30 µM
"CCCCN(CCCC)C(=O)c1ncn2c(=O)n(C)nnc12 [Compound 7, N,N-dibutyl-3-methyl-4-oxo-3,4-dihydroimidazo[5,1-d][1,2,3,5]tetrazine-8-carboxamide]",IC50,[1],11 ± 2 µM
same,"Stability (2 h, Microsomes)",[4],1 ± 1%
same,metabolic stability in words,[4],markedly less stability in liver microsomes
same,IC50,[2],140 ± 20 µM
same,"Stability (2 h, No Microsomes)",[8],98 ± 3%
same,IC50,[3],27 ± 6 µM
"Cn1nnc2c(C(=O)N3CCCC3)ncn2c1=O [Compound 8, 3-methyl-8-(pyrrolidine-1-carbonyl)imidazo[5,1-d][1,2,3,5]tetrazin-4(3H)-one]",IC50,[1],12 ± 4 µM
same,IC50,[2],186 ± 5 µM
same,IC50,[3],17 ± 3 µM
"CCSC(=O)c1ncn2c(=O)n(C)nnc12 [Compound 10, S-ethyl 3-methyl-4-oxo-3,4-dihydroimidazo[5,1-d][1,2,3,5]tetrazine-8-carbothioate]",IC50,[1],8 ± 1 µM
same,IC50,[2],327 ± 4 µM
same,IC50,[3],64 ± 21 µM
"CC(=O)c1ncn2c(=O)n(C)nnc12 [Compound 17, 8-acetyl-3-methylimidazo[5,1-d][1,2,3,5]tetrazin-4(3H)-one]",IC50,[1],18 ± 1 µM
same,metabolic stability in words,[4],generally stable to oxidative metabolism
same,pH dependence of hydrolysis,[9],pH-dependent
same,IC50,[5],5.2 ± 0.3 µM
same,IC50,[7]; [11],32 ± 4 µM
same,IC50,"[7]; 168 h, without O6BG",240 ± 20 µM
same,Fold Change,[7],8
same,Cohort weight 7 days Post,"[10]; 7 days after single IV dose of 125 mg/kg, error SEM, 4 mice",31 ± 1 g
same,Cohort weight Pre-treatment,"[10]; prior to single IV dose of 125 mg/kg, error SEM, 4 mice",30 ± 1 g
same,myelosuppression / white blood cell effect,"[10]; single IV dose 125 mg/kg, complete blood count after 7 days",did not produce myelosuppression
same,extension of median survival past TMZ-treated mice,[6]; 14.9 mg/kg oral once-per-day for 5 total doses,more than 50 days

# From patent US12234240B2, “Substituted imidazo[5,1-d][1,2,3,5]tetrazines for the treatment of cancer” (The Board of Trustees of the University of Illinois, priority 2018, dated 2025)
